Measured values as given in publication PMC3303751, “Development of Tyrosine-Based Radiotracer ^99mTc-N4-Tyrosine for Breast Cancer Imaging” (Journal of Biomedicine and Biotechnology, 2012).

Assays:
[1] = test system: rat breast tumor cell line 13762; test: In vitro cellular uptake; format: cell-based; conditions: 13762 cells
Experimental: Rat breast tumor cell line 13762 (American Type Culture Collection, Rockville, MD, USA) was used for both in vitro studies and to create the animal model for in vivo evaluation. All cells were maintained in Dulbecco's modified Eagle's medium and nutrient mixture F-12 Ham (DMEM/F12; GIBCO, Grand Island, NY) at 37°C in a humidified atmosphere containing 5% CO2.
For in vitro cellular uptake analysis, cells were plated onto 6-well tissue culture plates (2 × 10^5 cells/well) 48 hours before adding the radiotracers and incubated with ^99mTc-N4-Tyrosine (0.05 mg/well, 8 μCi/well), ^99mTc-N4 (0.025 mg/well, 8 μCi/well), or ^18F-FDG (8 μCi/well) for 0–4 hours. After incubation, cells were washed with ice-cold phosphate-buffered solution twice and detached using a treatment of 0.5 mL of trypsin for 5 minutes. Cells were then collected, and the radioactivity of the cells was measured in triplicate with a gamma counter (Cobra Quantum). Radioactivity was expressed as mean ± standard deviation (SD) percent of cellular uptake (%Uptake).

[2] = Tissue distribution in normal rats; format: in vivo, Fischer 344 rats; conditions: for tissue distribution, Blood / tissue distribution, Bone and joint / tissue distribution, Brain / tissue distribution, Heart / tissue distribution, Intestine / tissue distribution, Kidney / tissue distribution, Liver / tissue distribution, Lung / tissue distribution, Muscle / tissue distribution, Pancreas / tissue distribution, Spleen / tissue distribution, Stomach / tissue distribution, Thyroid: i.v.
Experimental: Tissue distribution studies of ^99mTc-N4-Tyrosine were conducted using normal female Fischer 344 rats (150 ± 25 g, n = 9). The rats were divided into 3 groups, and each rat was injected intravenously with 25 ± 0.5 μCi of ^99mTc-N4-Tyrosine. Each group was examined at 1 of 3 time points (0.5, 2, or 4 hours after injection). At each time point, the rats were killed, and the selected tissues were excised, weighed, and measured for radioactivity by gamma counter. For each sample, radioactivity was expressed as mean percentage of the injected dose per gram of tissue wet weight (%ID/g). Counts from a 1/10 diluted sample of the original injection were used as a reference.

Substance: ^99mTc-O-[3-(1,4,8,11-tetraazabicyclohexadecane)-propyl]-tyrosine [^99mTc-N4-Tyrosine]
- mean %Uptake compared with ^18F-FDG ([1]; 8 μCi/well): much higher than that of ^18F-FDG
- cellular uptake kinetics (%Uptake) ([1]; incubation 15-240 minutes): increased dramatically up to 240 minutes
- tissue distribution, Blood ([2]; 30 min after injection): 0.88 %ID/g
- tissue distribution, Bone and joint ([2]; 30 min after injection): 0.24 %ID/g
- tissue distribution, Brain ([2]; 30 min after injection): 0.03 %ID/g
- tissue distribution, Heart ([2]; 30 min after injection): 0.21 %ID/g
- tissue distribution, Intestine ([2]; 30 min after injection): 0.34 %ID/g
- tissue distribution, Kidney ([2]; 30 min after injection): 11.05 %ID/g
- tissue distribution, Liver ([2]; 30 min after injection): 1.15 %ID/g
- tissue distribution, Lung ([2]; 30 min after injection): 0.50 %ID/g
- tissue distribution, Muscle ([2]; 30 min after injection): 0.07 %ID/g
- tissue distribution, Pancreas ([2]; 30 min after injection): 0.17 %ID/g
- tissue distribution, Spleen ([2]; 30 min after injection): 0.94 %ID/g
- tissue distribution, Stomach ([2]; 30 min after injection): 0.20 %ID/g
- tissue distribution, Thyroid ([2]; 30 min after injection): 0.34 %ID/g
- tissue distribution, Blood ([2]; 120 min after injection): 0.20 %ID/g
- tissue distribution, Bone and joint ([2]; 120 min after injection): 0.15 %ID/g
- tissue distribution, Brain ([2]; 120 min after injection): 0.02 %ID/g
- tissue distribution, Heart ([2]; 120 min after injection): 0.06 %ID/g
- tissue distribution, Intestine ([2]; 120 min after injection): 0.13 %ID/g
- tissue distribution, Kidney ([2]; 120 min after injection): 12.34 %ID/g
- tissue distribution, Liver ([2]; 120 min after injection): 0.70 %ID/g
- tissue distribution, Lung ([2]; 120 min after injection): 0.19 %ID/g
- tissue distribution, Muscle ([2]; 120 min after injection): 0.03 %ID/g
- tissue distribution, Pancreas ([2]; 120 min after injection): 0.07 %ID/g
- tissue distribution, Spleen ([2]; 120 min after injection): 0.76 %ID/g
- tissue distribution, Stomach ([2]; 120 min after injection): 0.08 %ID/g
- tissue distribution, Thyroid ([2]; 120 min after injection): 0.10 %ID/g
- tissue distribution, Blood ([2]; 240 min after injection): 0.17 %ID/g
- tissue distribution, Bone and joint ([2]; 240 min after injection): 0.12 %ID/g
- tissue distribution, Brain ([2]; 240 min after injection): 0.01 %ID/g
- tissue distribution, Heart ([2]; 240 min after injection): 0.05 %ID/g
- tissue distribution, Intestine ([2]; 240 min after injection): 0.11 %ID/g
- tissue distribution, Kidney ([2]; 240 min after injection): 12.40 %ID/g
- tissue distribution, Liver ([2]; 240 min after injection): 0.67 %ID/g
- tissue distribution, Lung ([2]; 240 min after injection): 0.14 %ID/g
- tissue distribution, Muscle ([2]; 240 min after injection): 0.02 %ID/g
- tissue distribution, Pancreas ([2]; 240 min after injection): 0.05 %ID/g
- tissue distribution, Spleen ([2]; 240 min after injection): 0.63 %ID/g
- tissue distribution, Stomach ([2]; 240 min after injection): 0.06 %ID/g
- tissue distribution, Thyroid ([2]; 240 min after injection): 0.09 %ID/g
- stability in vivo ([2]; inferred from low thyroid and stomach uptake): high stability in vivo
